Source: PubChem BioAssay (NCI)
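Briefly, cells in 96-well plates were exposed to five compound concentrations for 48 h, and endpoints were estimated by linear interpolation. TGI: total growth inhibition.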

Experiments:
Assay in all cases: growth of human tumour cells (NCI), 48 h
SF-268 CNS = test system: SF-268 CNS
SN12C renal = test system: SN12C renal
SK-MEL-28 melanoma = test system: SK-MEL-28 melanoma
KM12 colon = test system: KM12 colon
NCI-H23 lung = test system: NCI-H23 lung
OVCAR-4 ovarian = test system: OVCAR-4 ovarian
M19-MEL melanoma = test system: M19-MEL melanoma
K-562 leukemia = test system: K-562 leukemia
SNB-78 CNS = test system: SNB-78 CNS
SF-295 CNS = test system: SF-295 CNS
DMS 273 small cell lung = test system: DMS 273 small cell lung
M14 melanoma = test system: M14 melanoma
UO-31 renal = test system: UO-31 renal
SK-OV-3 ovarian = test system: SK-OV-3 ovarian
DLD-1 colon = test system: DLD-1 colon
SK-MEL-2 melanoma = test system: SK-MEL-2 melanoma
HT29 colon = test system: HT29 colon
A549 NSCLC = test system: A549 NSCLC
IGROV1 ovarian = test system: IGROV1 ovarian
HCC-2998 colon = test system: HCC-2998 colon
OVCAR-3 ovarian = test system: OVCAR-3 ovarian
HOP-18 NSCLC = test system: HOP-18 NSCLC
NCI-H460 lung = test system: NCI-H460 lung
ACHN renal = test system: ACHN renal
NCI-H226 lung = test system: NCI-H226 lung
RPMI-8226 leukemia = test system: RPMI-8226 leukemia
TK-10 renal = test system: TK-10 renal
SF-539 CNS = test system: SF-539 CNS
UACC-257 melanoma = test system: UACC-257 melanoma
HCT-116 colon = test system: HCT-116 colon
MALME-3M melanoma = test system: MALME-3M melanoma
HL-60(TB) leukemia = test system: HL-60(TB) leukemia
SNB-75 CNS = test system: SNB-75 CNS
LXFL 529 NSCLC = test system: LXFL 529 NSCLC
OVCAR-5 ovarian = test system: OVCAR-5 ovarian
MOLT-4 leukemia = test system: MOLT-4 leukemia
OVCAR-8 ovarian = test system: OVCAR-8 ovarian
HOP-92 NSCLC = test system: HOP-92 NSCLC
CCRF-CEM leukemia = test system: CCRF-CEM leukemia
U251 CNS = test system: U251 CNS
786-0 renal = test system: 786-0 renal
HCT-15 colon = test system: HCT-15 colon
XF 498 CNS = test system: XF 498 CNS
COLO 205 colon = test system: COLO 205 colon
UACC-62 melanoma = test system: UACC-62 melanoma
A498 renal = test system: A498 renal
CAKI-1 renal = test system: CAKI-1 renal
HOP-62 NSCLC = test system: HOP-62 NSCLC
EKVX NSCLC = test system: EKVX NSCLC
SR leukemia = test system: SR leukemia
SNB-19 CNS = test system: SNB-19 CNS
RXF 393 renal = test system: RXF 393 renal
SW-620 colon = test system: SW-620 colon
LOX IMVI melanoma = test system: LOX IMVI melanoma
SK-MEL-5 melanoma = test system: SK-MEL-5 melanoma
KM20L2 colon = test system: KM20L2 colon
NCI-H522 lung = test system: NCI-H522 lung

Measured: TGI

CSC1(C)CC2C(CC1N1CCCCC1)C2(C)C (stereo not drawn)
not listed: UACC-62 melanoma | A498 renal | CAKI-1 renal | HOP-62 NSCLC | EKVX NSCLC | SR leukemia | SNB-19 CNS | RXF 393 renal | SW-620 colon | LOX IMVI melanoma | SK-MEL-5 melanoma | KM20L2 colon | NCI-H522 lung
> 100 µM: all other assays above

CCOC(=O)N1C=NC23C(c4ccccc4)C(c4ccccc4)C12C(=O)N(C)C(=O)N3C (stereo not drawn)
not listed: SNB-78 CNS | NCI-H226 lung | SF-539 CNS
> 100 µM: all other assays above
